Laboratory results from PubChem BioAssay AID328 (DTP/NCI, 2004).
Several values for one entry are separate records, joined by “and”; a condition that tells them apart may be missing. Identical values can stand only once. Toxic doses and inconclusive results are not listed. How the source made its calls: active means survival T/C of 150% or more; inactive means T/C below 125% in these data.

Tested on: BDF1 mice, P388 leukemia ip, median survival T/C
Experiment: NCI In Vivo Anticancer Drug Screen. Data for tumor model P388 Leukemia (intraperitoneal) in B6D2F1 (BDF1) mice
Details: endpoint: median survival time, higher = longer survival
In short: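 Compound-treated tumour-bearing mice were compared with vehicle-treated controls. Survival was recorded, and the value is the treated-group measurement divided by the control-group measurement (T/C).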

[1] = dose: 50.0 mg/kg/injection, schedule: Q04DX003 (ip), vehicle: saline
[2] = dose: 100.0 mg/kg/injection, schedule: Q04DX003 (ip), vehicle: saline
[3] = dose: 200.0 mg/kg/injection, schedule: Q04DX003 (ip), vehicle: saline
[4] = dose: 100.0 mg/kg/injection, schedule: Q01DX009 (ip), vehicle: other
[5] = dose: 50.0 mg/kg/injection, schedule: Q01DX009 (ip), vehicle: saline with Tween-80
[6] = dose: 100.0 mg/kg/injection, schedule: Q01DX009 (ip), vehicle: saline with Tween-80
[7] = dose: 200.0 mg/kg/injection, schedule: Q01DX009 (ip), vehicle: saline with Tween-80
[8] = dose: 12.5 mg/kg/injection, schedule: Q01DX009 (ip), vehicle: saline
[9] = dose: 25.0 mg/kg/injection, schedule: Q01DX009 (ip), vehicle: saline
[10] = dose: 50.0 mg/kg/injection, schedule: Q01DX009 (ip), vehicle: saline
[11] = dose: 100.0 mg/kg/injection, schedule: Q01DX009 (ip), vehicle: saline
[12] = dose: 200.0 mg/kg/injection, schedule: Q01DX009 (ip), vehicle: saline
[13] = dose: 400.0 mg/kg/injection, schedule: Q01DX009 (ip), vehicle: saline
[14] = dose: 100.0 mg/kg/injection, schedule: Q04DX003 (ip), vehicle: saline with Tween-80
[15] = dose: 400.0 mg/kg/injection, schedule: Q04DX003 (ip), vehicle: saline

Measured: T/C

CP1(=O)CC(=O)CCC(=O)C1
inactive: dose: 50.0 mg/kg/injection, schedule: Q04DX002 (ip), vehicle: saline 104 % of control | dose: 100.0 mg/kg/injection, schedule: Q04DX002 (ip), vehicle: saline 105 % of control | dose: 200.0 mg/kg/injection, schedule: Q04DX002 (ip), vehicle: saline 106 % of control

CCOC(=O)C(=O)N(Cc1cnc2nc(N)[nH]c(=O)c2n1)c1ccc(C(=O)NC(CCC(=O)O)C(=O)O)cc1 (centres undefined)
inactive: [1] 96 % of control | [2] 103 % of control | [3] 116 % of control

CCCCCCC/C=N/N=C/CCCCCCC
inactive: [4] 100 % of control | dose: 100.0 mg/kg/injection, schedule: Q04DX003 (ip), vehicle: other 109 % of control | dose: 178.0 mg/kg/injection, schedule: Q01DX009 (ip), vehicle: other 122 % of control | dose: 200.0 mg/kg/injection, schedule: Q04DX003 (ip), vehicle: other 109 % of control | dose: 400.0 mg/kg/injection, schedule: Q01DX009 (ip), vehicle: other 104 % of control

CS(=O)(=O)CC(O)(c1ccccc1)c1ccccn1 (centres undefined)
inactive: [5] 90 % of control | [6] 89 % of control | [7] 89 % of control

c1ccc([C@H]2CN3CCSC3=N2)cc1
inactive: dose: 0.15 mg/kg/injection, schedule: Q01DX009 (ip), vehicle: saline 100 % of control | dose: 0.31 mg/kg/injection, schedule: Q01DX009 (ip), vehicle: saline 100 % of control | dose: 0.63 mg/kg/injection, schedule: Q01DX009 (ip), vehicle: saline 100 % of control and 122 % of control | dose: 1.25 mg/kg/injection, schedule: Q01DX009 (ip), vehicle: saline 97 % of control and 104 % of control | dose: 2.5 mg/kg/injection, schedule: Q01DX009 (ip), vehicle: saline 99 % of control and 104 % of control | dose: 5.0 mg/kg/injection, schedule: Q01DX009 (ip), vehicle: saline 100 % of control | dose: 10.0 mg/kg/injection, schedule: Q01DX009 (ip), vehicle: saline 94 % of control and 100 % of control | dose: 20.0 mg/kg/injection, schedule: Q01DX009 (ip), vehicle: saline 94 % of control and 100 % of control

N=C(N)SCc1ccc(CSC(=N)N)s1
inactive: dose: 6.25 mg/kg/injection, schedule: Q01DX009 (ip), vehicle: saline 97 % of control | [8] 106 % of control | [9] 106 % of control

Cc1n(C(C)C)c2c([n+]1C)C(=O)c1ccccc1C2=O
inactive: dose: 1.25 mg/kg/injection, schedule: Q01DX009 (ip), vehicle: alcohol 118 % of control | dose: 2.5 mg/kg/injection, schedule: Q01DX009 (ip), vehicle: alcohol 122 % of control

CCCCCCCCCCCCSSC(=S)OC(C)C
inactive: dose: 50.0 mg/kg/injection, schedule: Q01DX009 (ip), vehicle: other 106 % of control | [4] 124 % of control

CC(C)C1(C(C)C)OCCO1
inactive: [1] 87 % of control | [2] 108 % of control | [3] 100 % of control

O/N=C(/C(=N/O)c1ccccc1)c1ccccc1.O/N=C(/C(=N/O)c1ccccc1)c1ccccc1.[Cl][Rh][Cl]
inactive: [9] 119 % of control | [10] 117 % of control | [11] 94 % of control | [12] 103 % of control | [13] 95 % of control

CC(C)CCCCc1c[nH]c(=O)[nH]c1=O
inactive: [14] 100 % of control | dose: 200.0 mg/kg/injection, schedule: Q04DX003 (ip), vehicle: saline with Tween-80 100 % of control | dose: 400.0 mg/kg/injection, schedule: Q04DX003 (ip), vehicle: saline with Tween-80 100 % of control

Brc1csc2ncccc12
inactive: dose: 100.0 mg/kg/injection, schedule: Q04DX003 (ip), vehicle: Klucel (hydroxypropylcellulose) (HPC) 90 % of control | dose: 200.0 mg/kg/injection, schedule: Q04DX003 (ip), vehicle: Klucel (hydroxypropylcellulose) (HPC) 109 % of control

O=C(O)c1ccccc1C(=O)O (tested in a mixture with another compound)
inactive: dose: 50.0 mg/kg/injection, schedule: Q01DX009 (ip), vehicle: Klucel (hydroxypropylcellulose) (HPC) 89 % of control | dose: 100.0 mg/kg/injection, schedule: Q01DX009 (ip), vehicle: Klucel (hydroxypropylcellulose) (HPC) 91 % of control | dose: 200.0 mg/kg/injection, schedule: Q01DX009 (ip), vehicle: Klucel (hydroxypropylcellulose) (HPC) 96 % of control

COc1ccccc1C(=O)/C=C\c1ccc(OCc2ccccc2)cc1
inactive: [5] 89 % of control | [6] 86 % of control | [7] 87 % of control

CC1=NN(c2ccc(S(=O)(=O)O)cc2)C(=O)/C1=C/c1ccc(Cl)cc1
inactive: [10] 92 % of control | [11] 90 % of control

Nc1ccc(C(=O)O)c([N+](=O)[O-])c1
inactive: [8] 92 % of control | [9] 100 % of control | [10] 105 % of control and 118 % of control | [1] 99 % of control | [11] 94 % of control and 98 % of control | [2] 100 % of control | [12] 107 % of control | [3] 112 % of control | [13] 100 % of control | [15] 103 % of control

CCNC(C)(C)C(SSS)c1ccco1 (centres undefined)
inactive: dose: 100.0 mg/kg/injection, schedule: Q04DX003 (ip), vehicle: gum acacia 100 % of control and 116 % of control | dose: 134.0 mg/kg/injection, schedule: Q01DX009 (ip), vehicle: gum acacia 100 % of control | dose: 200.0 mg/kg/injection, schedule: Q04DX003 (ip), vehicle: gum acacia 109 % of control | dose: 400.0 mg/kg/injection, schedule: Q04DX003 (ip), vehicle: gum acacia 91 % of control and 122 % of control

CN=C(N)c1ccc(N=C(N)c2ccc(N=C(N)c3ccc(NC(=O)Nc4ccc(NC(=O)Nc5ccc(C(N)=Nc6ccc(C(N)=Nc7ccc(C(N)=NC)cc7)cc6)cc5)cc4)cc3)cc2)cc1
inactive: dose: 18.0 mg/kg/injection, schedule: Q01DX009 (ip), vehicle: saline with Tween-80 92 % of control | dose: 25.0 mg/kg/injection, schedule: Q01DX009 (ip), vehicle: saline with Tween-80 109 % of control
active: dose: 3.0 mg/kg/injection, schedule: Q01DX009 (ip), vehicle: saline with Tween-80 162 % of control | dose: 5.0 mg/kg/injection, schedule: Q01DX009 (ip), vehicle: saline with Tween-80 183 % of control | dose: 8.0 mg/kg/injection, schedule: Q01DX009 (ip), vehicle: saline with Tween-80 230 % of control and 162 % of control | dose: 12.0 mg/kg/injection, schedule: Q01DX009 (ip), vehicle: saline with Tween-80 150 % of control | dose: 12.0 mg/kg/injection, schedule: Q04DX003 (ip), vehicle: saline with Tween-80 250 % of control | dose: 18.0 mg/kg/injection, schedule: Q04DX003 (ip), vehicle: saline with Tween-80 213 % of control and 216 % of control | dose: 25.0 mg/kg/injection, schedule: Q04DX003 (ip), vehicle: saline with Tween-80 250 % of control and 204 % of control | dose: 37.0 mg/kg/injection, schedule: Q04DX003 (ip), vehicle: saline with Tween-80 170 % of control

COc1cccc(N=C(N)N=C(N)N)c1
inactive: dose: 25.0 mg/kg/injection, schedule: Q04DX003 (ip), vehicle: saline 95 % of control | dose: 50.0 mg/kg/injection, schedule: Q01DX001 (ip), vehicle: saline 100 % of control | [1] 91 % of control | dose: 100.0 mg/kg/injection, schedule: Q01DX001 (ip), vehicle: saline 100 % of control | [2] 95 % of control

FC(F)(F)C(F)(F)C(F)(F)c1nc2nc(Cl)c(Cl)nc2[nH]1
inactive: dose: 3.12 mg/kg/injection, schedule: Q01DX009 (ip), vehicle: saline with Tween-80 115 % of control | dose: 6.25 mg/kg/injection, schedule: Q01DX009 (ip), vehicle: saline with Tween-80 105 % of control | dose: 12.5 mg/kg/injection, schedule: Q01DX009 (ip), vehicle: saline with Tween-80 95 % of control | dose: 50.0 mg/kg/injection, schedule: Q04DX003 (ip), vehicle: saline with Tween-80 95 % of control | [14] 90 % of control

S=C1CCNCC1
inactive: [8] 95 % of control | [9] 86 % of control | [10] 100 % of control

CCCCC1(CC)COC(C)(Cc2ccccc2)OC1 (centres undefined)
inactive: [11] 100 % of control | [2] 104 % of control | [12] 100 % of control | [3] 100 % of control | [13] 90 % of control | [15] 104 % of control

CCN1C(=O)C(=O)c2ccccc21
inactive: dose: 75.0 mg/kg/injection, schedule: Q01DX009 (ip), vehicle: saline with Tween-80 86 % of control
